Measurements as given in US11014943B2, “Azetidine derivative” (CHIA TAI TIANQING PHARMACEUTICAL GROUP CO., LTD., priority 2017, dated 2021).

Tests used:
MM1.S cells = assay: In vitro anti-proliferation test on MM1.S cells (CellTiter-Glo); assay type: cell-based; settings: Homo sapiens, 48 h, 2 days incubation, cell viability
Description: This test was aimed to investigate the inhibitory effect of a compound on cell proliferation by determining the effect of the compound on cell viability in tumor cell line MM1.S in vitro.
MM1.S cells were seeded into a black 96-well cell culture plate at a density of 7,000 cells per well, and then the plate was incubated overnight in an incubator with 5% CO2 and 100% relative humidity at 37° C. A solution of a test compound in DMSO was added to the cell culture wells at a certain concentration (0.3 to 2000 nM), and then the culture plate was placed back to the incubator, and a vehicle control (containing DMSO with no compound) and a blank control were provided.
The culture plate was incubated in the incubator with 5% CO2 and 100% relative humidity at 37° C. for 2 days. The sample was treated using the Promega CellTiter-Glo Luminescent Cell Viability Assay Kit (Promega-G7571) standard method, and a luminescent signal was detected on the SpectraMax i3x of Molecular Devices plate reader. The inhibition rate of the test compound was calculated through the following equation using original data: […]
RLU represents a relative luminescence intensity.

[1] = Liver microsome stability test, human; assay type: in vitro ADME; settings: human liver microsomes; human (H) liver microsome; read-out: Liver microsome stability (T1/2, min)
Description: (§1) A test compound was incubated with CD-1 mouse liver microsome, SD rat liver microsome, and human liver microsome, respectively, to evaluate the stability of the test compound.
(§2) Preparation of a solution sample of the test compound: 10 mM solution (5 μL) of a compound prepared in the Example in DMSO was added to a mixed solvent (450 μL) of DMSO (45 μL), methanol and water (a volume ratio of methanol to water was 1:1) to prepare a 100 μM solution of the test compound; and 50 μL of the 100 μM solution of the test compound was added to 450 μL of 100 mM potassium phosphate buffer to obtain a 10 μM solution of the test compound.
(§3) The 10 μM solution of the test compound was pre-incubated with the microsome from the above three species for 10 minutes, respectively, and then a working solution of a reduced nicotinamide adenine dinucleotide phosphate (NADPH) regeneration system was added to the incubation plate at each time point to initiate the reaction, and finally a stop solution (100% ACN) was added to the reaction plate to terminate the reaction at 0, 5, 10, 20, 30 and 60-minute. The test compound was determined by LC-MS/MS method.

[2] = Liver microsome stability test, mouse; assay type: in vitro ADME; settings: mouse liver microsomes; CD-1 mouse (M) liver microsome; read-out: Liver microsome stability (T1/2, min)
Description: as §1, §2, §3

[3] = Liver microsome stability test, rat; assay type: in vitro ADME; settings: rat liver microsomes; SD rat (R) liver microsome; read-out: Liver microsome stability (T1/2, min)
Description: as §1, §2, §3

MDR1 = assay: Cell membrane permeability test on MDR1-MDCK II cells; assay type: in vitro ADME; settings: dog; for Papp A→B at 150 min, 2 μM / Papp B→A at 150 min, 2 μM: pH=7.4; for efflux ratio at 150 min, 2 μM: pH 7.4, Papp B to A/Papp A to B
Description: Cell membrane permeability of a test compound was evaluated on MDR1-MDCK II cells.
A test compound (10 mM solution of the compound in DMSO) was diluted with a transfer buffer (HBSS with 10 mM Hepes, pH=7.4) to prepare a sample having a final concentration of 2 μM, followed by bidirectional (A-B and B-A) administration. After administration, the cell plate was incubated in an incubator with 5% CO2 and a saturated humidity at 37° C. for 150 minutes. After the 150-minute incubation, the sample was collected, and the concentration of the test compound in the transfer sample was semi-quantitatively determined by LC/MS/MS method.

SMILES	IC50 (MM1.S cells)	half-life [1]	half-life [2]	half-life [3]	Papp A→B at 150 min, 2 μM (MDR1)	Papp B→A at 150 min, 2 μM (MDR1)	efflux ratio at 150 min, 2 μM (MDR1)
CC(C)CC(NC(=O)CNC(=O)[C@@H]1CCN1c1ccc(C(F)(F)F)cn1)B(O)O (some centres unmarked) [WX-329]	11.5 nM	51.5 min	40.3 min	43.3 min	0.27 ×10⁻⁶ cm/s	3.74 ×10⁻⁶ cm/s	13.8
CC(C)CC(NC(=O)CNC(=O)[C@@H]1CCN1c1nc(C(F)(F)F)cs1)B(O)O (some centres unmarked) [WX-327]	24.2 nM	75 min	37.7 min	26.5 min	0.24 ×10⁻⁶ cm/s	2.24 ×10⁻⁶ cm/s	9.33
CC(C)CC(NC(=O)[C@H](CC1CC1)NC(=O)[C@@H]1CCN1c1ncc(F)cn1)B(O)O (some centres unmarked) [WX-260]	11 nM	108 min	84.8 min	> 145 min	0.3 ×10⁻⁶ cm/s	5.1 ×10⁻⁶ cm/s	17
CC(C)CC(NC(=O)[C@H](Cc1ccccc1)NC(=O)[C@@H]1CCN1c1ccc(F)cc1)B(O)O (single isomer, unassigned) [WX-193]	8.2 nM	4.8 min	2.7 min	4.6 min	0.1 ×10⁻⁶ cm/s	13.1 ×10⁻⁶ cm/s	131
CC(C)CC(NC(=O)[C@H](C)NC(=O)[C@@H]1CCN1c1ncc(F)cn1)B(O)O (single isomer, unassigned) [WX-313]	24.5 nM	> 145 min	52.5 min	57.2 min	0.2 ×10⁻⁶ cm/s	1.29 ×10⁻⁶ cm/s	7.16
CC(C)CC(NC(=O)[C@H](Cc1ccccc1)NC(=O)[C@@H]1CCN1c1nccc(-c2ccccc2)n1)B(O)O (some centres unmarked) [WX-174]	5.8 nM	3.5 min	0.8 min	1.6 min	0.44 ×10⁻⁶ cm/s	18.4 ×10⁻⁶ cm/s	41.8
CC(C)CC(NC(=O)[C@H](CC1CC1)NC(=O)[C@@H]1CCN1c1nc(C(F)(F)F)cs1)B(O)O (some centres unmarked) [WX-308]	8.9 nM	27.4 min	20.1 min	26.8 min	0.2 ×10⁻⁶ cm/s	15.3 ×10⁻⁶ cm/s	76.5
CC(C)CC(NC(=O)[C@H](CC1CC1)NC(=O)[C@@H]1CCN1c1ccc(C(F)(F)F)cn1)B(O)O (some centres unmarked) [WX-306]	8.2 nM	17.8 min	14 min	37.4 min	0.3 ×10⁻⁶ cm/s	17.8 ×10⁻⁶ cm/s	59.3
CC(C)CC(NC(=O)CNC(=O)[C@@H]1CCN1c1ccc(C(F)(F)F)nn1)B(O)O (some centres unmarked) [WX-367]	183 nM						

Second part, the compound after the results:

IC50 (MM1.S cells)	half-life [1]	half-life [2]	half-life [3]	Papp A→B at 150 min, 2 μM (MDR1)	Papp B→A at 150 min, 2 μM (MDR1)	efflux ratio at 150 min, 2 μM (MDR1)	SMILES
5.4 nM							CC(C)CC(NC(=O)CNC(=O)[C@@H]1CCN1c1cc(F)c(F)cc1F)B(O)O (some centres unmarked) [WX-391]
32 nM	77 min	27.1 min	35.5 min	0.01 ×10⁻⁶ cm/s	0.05 ×10⁻⁶ cm/s	5	CC(C)CC(NC(=O)CNC(=O)[C@@H]1CCN1c1ccc(F)cn1)B(O)O (single isomer, unassigned) [WX-317]
5.8 nM	74.3 min	43.5 min	42.1 min				CC(C)CC(NC(=O)CNC(=O)[C@@H]1CCN1c1ccc(F)cc1)B(O)O (single isomer, unassigned) [WX-301]
90.6 nM							CC(C)CC(NC(=O)CNC(=O)[C@@H]1CCN1c1ccc(C#N)cc1F)B(O)O (some centres unmarked) [WX-365]
1 nM	67.4 min	67.4 min	43.1 min	0.38 ×10⁻⁶ cm/s	7.32 ×10⁻⁶ cm/s	19.3	CC(C)CC(NC(=O)CNC(=O)[C@@H]1CCN1c1ccc(F)cc1F)B(O)O (single isomer, unassigned) [WX-333]
28.8 nM							CC(C)CC(NC(=O)CNC(=O)[C@@H]1CCN1c1ccc(C(F)(F)F)cc1F)B(O)O (some centres unmarked) [WX-355]
45.9 nM							CC(C)CC(NC(=O)CNC(=O)[C@@H]1CCN1c1ccc(C(F)(F)F)cc1Cl)B(O)O (some centres unmarked) [WX-351]
26.7 nM							CC(C)CC(NC(=O)CNC(=O)[C@@H]1CCN1c1c(F)cc(Cl)cc1F)B(O)O (some centres unmarked) [WX-373]
104 nM							CC(C)CC(NC(=O)CNC(=O)[C@@H]1CCN1c1ccc(Cl)cc1C(F)(F)F)B(O)O (some centres unmarked) [WX-385]
24 nM							CC(C)CC(NC(=O)CNC(=O)[C@@H]1CCN1c1ncc(F)cc1F)B(O)O (some centres unmarked) [WX-379]
119 nM							CC(C)CC(NC(=O)CNC(=O)[C@@H]1CCN1c1ccc(F)cc1Cl)B(O)O (some centres unmarked) [WX-381]
